{
  "source": "patent US20080221074A1",
  "about": "“Drug Screen and Treatment Method” (priority 2006, published 2008)",
  "key": {"osteoprotegerin": {"system": "osteoprotegerin", "assay": "osteoprotegerin levels in dexamethasone treated mice", "format": "in vivo", "conditions": "vehicle, dexamethasone and compound at 4 mg/kg/day; p<0.05", "procedure": "Osteoprotegerin levels in mice that were treated with vehicle and dexamethasone at 10 μg/day (positive control group) had 3.3 pMol/L osteoprotegerin, while animals treated with vehicle, dexamethasone and 17α-ethynyl-5-androstene-3β,7β,17β-triol at 4 mg/kg/day had 6.4 pMol/L osteoprotegerin (p<0.05)."}, "[1]": {"system": "osteoblasts and osteocytes", "assay": "osteoblast and osteocyte apoptosis in vertebral bone of ovariectomized mice (TUNEL)", "format": "in vivo, Swiss Webster mice", "from_the_text": "The degree of apoptosis of osteoblasts and osteocytes in murine vertebral bone as a function of estrogen deficiency was examined. Swiss Webster mice (four months old) were ovariectomized. Twenty-eight days later, the animals were sacrificed, vertebrae were isolated, fixed and embedded, and then undecalcified in methacrylate."}, "[2]": {"system": "passive collagen-induced arthritis", "assay": "passive collagen induced arthritis (anti-type II collagen antibodies)", "format": "in vivo, DBA/1 mice", "conditions": "40 mg/kg/day oral gavage", "from_the_text": "The capacity of formula 1 compounds to affect the course of arthritis in a passive collagen induced arthritis model of arthritis was examined essentially as previously described (E. Simelyte et al., Arthritis & Rheumatism, 52(6):1876-1884, 2005; Z. Han et al. Arthritis & Rheumatism 46(3):818-823, 2002; H. Miyahara et al., Clin. Immunol. Immunopathol., 69(1):69-76 1993). In this protocol, passive collagen-induced arthritis was induced in DBA/1 mice by administering anti-type II collagen antibodies, which induced an immune response against joint tissue in the animals. […] The severity of arthritis was assessed using a semiquantitative clinical scoring system. Groups of 8 animals per group were treated with 17α-ethynylandrost-5-ene-3β,7β,17β-triol at 40 mg/kg/day for 14 days or vehicle for 14 days by oral gavage. The vehicle was 30% cyclodextrin-sulfobutylether in water and the drug solution was vehicle with drug at 20 mg/mL.\nThe animals were examined by measuring ankle thickness and arthritis score (4-point/paw) with a higher score indicating a more severe arthritis. The experiment was terminated after about 14 days, and histology and gene expression measurements were performed. […] A semi-quantitative scoring system was used to access synovial inflammation, extraarticular inflammation, erosion and proteogylcan loss. […]"}, "[3]": {"system": "blood glucose in db/db mice", "assay": "glucose lowering in diabetic db/db mice", "format": "in vivo, db/db C57BL/Ks mice", "procedure": "Glucose lowering and amelioration of insulin resistance. Glucose lowering effects and amelioration of insulin resistance was assessed in the diabetic db/db mouse model of human diabetes and insulin resistance. In these studies, db/db C57BL/Ks mice of approximately 8 to 10 weeks of age were divided into groups of 10 each and then treated with a vehicle control (no drug) or 17α-ethynylandrost-5-ene-3β,7β,17β-triol by oral gavage. The compound was administered twice a day at 20 mg/kg/day (10 mg/kg dose administered twice per day), 40 mg/kg/day (20 mg/kg dose administered twice per day) or 80 mg/kg/day (40 mg/kg dose administered twice per day) for up to 28 days. Blood glucose levels were monitored twice a week during the dosing period, using a minute amount of blood (nick tail bleeds) to measure the concentration of glucose by glucometer strips. At specific times during the dosing period (day 14 and day 28), an oral glucose tolerance test (OGTT) was also performed by administering a standard oral dose of 1 g/kg glucose (approximately 40 mg in a […]) and then the fluctuation of blood glucose levels was monitored quickly thereafter after at 15, 30, 60 and 120 minutes after the glucose dose. […] Blood glucose approached 380 mg/dL in the vehicle control group and was <230 mg/dL after at least 10 days of dosing in the drug treated group.\nA treatment protocol similar to that described in example 15 was performed with db/db mice that were younger than the animals described in example 15. The animals (n=8 to 10 per group) were treated with 17α-ethynylandrost-5-ene-3β,7β,17β-triol or vehicle by oral gavage twice per day at 40 mg/kg/day (20 mg/kg dose given twice per day) and 80 mg/kg/day (40 mg/kg dose given twice per day). At the start of dosing, the animals were 6 weeks of age, before the onset of elevated glucose levels or hyperglycemia. Dosing with vehicle or drug was maintained for 32 days to determine the effect of the treatments on the onset and rate of progression of hyperglycemia in the animals. In the control group, the onset of hyperglycemia was observed after 25 days of dosing and it continued to worsen, i.e., blood glucose levels rose from normal to frank hyperglycemia, through the end of the 32 day dosing period."}, "[4]": {"system": "monocyte chemoattractant protein-1 (MCP-1)", "assay": "MCP-1 RNA in perigonadal fat tissue by quantitative RT/PCR", "format": "in vivo, db/db mice", "conditions": "20 mg/kg; normalized to vehicle control", "procedure": "In another study, total RNA from perigonadal fat tissue from lean db/+ or diabetic db/db mice treated with 20 mg/kg of 17α-ethynylandrost-5-ene-3β,7β,17β-triol was isolated and processed for quantitative RT/PCR using primers specific for monocyte chemoattractant protein-1 (MCP-1) using an icycler iQ multicolor real time-detection system (Bio-Rad). RNA expression levels were normalized with respect to the vehicle control. […] For this study, vehicle was also administered to a control group of age matched lean heterozygous db/+ mice (n=7)."}, "11β-HSD1": {"system": "11β-HSD1", "assay": "expression of 11β-HSD1 in osteoblasts of treated mice", "conditions": "mouse, in vivo"}, "[5]": {"system": "human MG-63 osteosarcoma cell line", "assay": "reversal of dexamethasone effects in MG-63 osteoblasts", "format": "cell-based", "conditions": "30 nM dexamethasone; compound concentration stated with each value (17α-ethynyl triol: 1 nM)"}},
  "note": "Entries after “also recorded” stand apart in the source; their conditions may differ.",
  "data": [
    {"molecule": "C#C[C@]1(O)CC[C@H]2[C@@H]3[C@@H](O)C=C4C[C@@H](O)CC[C@]4(C)[C@H]3CC[C@@]21C", "note": "[17α-ethynylandrost-5-ene-3β,7β,17β-triol]", "values": [
      {"measurement": "osteoprotegerin", "setting": "osteoprotegerin", "result": 6.4, "unit": "pmol/L"},
      {"measurement": "osteoblast and osteocyte apoptosis", "setting": "[1]", "result": "reduce apoptosis"},
      {"measurement": "maximum clinical score", "setting": "[2]; day 7", "result": 5.1},
      {"measurement": "clinical score at day 14", "setting": "[2]; end of protocol", "result": 4.1},
      {"measurement": "OGTT peak glycemic excursion", "setting": "[3]; 80 mg/kg b.i.d. for 28 days, 30-min post-oral glucose", "result": "< 200", "unit": "mg/dL"},
      {"measurement": "onset of hyperglycemia", "setting": "[3]; 6 week old db/db mice, 32 day dosing", "result": "did not rise above normal levels; also recorded: completely blocked progression"},
      {"measurement": "decrease in hyperglycemic blood glucose levels", "setting": "[3]; 8 to 10 week old db/db mice, oral gavage twice a day", "result": "approximately 40%"},
      {"measurement": "basal blood glucose", "setting": "[3]; 8 week old male db/db mice, 40 mg/kg dose group, twice a day", "result": "markedly suppressed"},
      {"measurement": "blood glucose", "setting": "[3]; after at least 10 days of dosing", "result": "< 230", "unit": "mg/dL"},
      {"measurement": "glucose intolerance in OGTT vs vehicle", "setting": "[3]; treated db/db animals", "result": "significant amelioration of glucose intolerance"},
      {"measurement": "decrease of MCP-1 levels", "setting": "[4]", "result": "about 50%"},
      {"measurement": "decrease of expression of 11β-HSD1 in osteoblasts", "setting": "11β-HSD1", "result": "about 50%"},
      {"measurement": "reversal of the decrease in osteoprotegerin synthesis", "setting": "[5]", "result": "completely reversed the decrease in osteoprotegerin synthesis"}
    ]}
  ]
}
